According to patent publication US7368429B2, “Peptide specificity of anti-myelin basic protein and the administration of myelin basic protein peptides to multiple sclerosis patients” (The Governors of the University of Alberta, priority 1991, dated 2008):
“Also recorded” adds a separate entry of the source. Values belong to the molecule of their own block, whether it stands above or below them. Where a SMILES comes first, the peptide text is derived from it. Where no end group is shown, it is not given here.

Legend:
[1] = system: anti-MBP purified from CSF of MS patients; assay: In vitro neutralization of purified anti-MBP (liquid phase assay, then solid phase radioimmunoassay); format: binding, human; conditions: for neutralization of purified anti-MBP: pooled anti-MBP from 10 MS patients, FIG. 2; for REACTIVITY WITH ANTI-MBP: purified anti-MBP, h-MBP 0-1000 ng, peptides 0-10,000 ng, 1.5 hours incubation
Text: Purified MBP was coupled to CNBr-activated Sepharose 4B (Pharmacia™) according to the manufacturer's instructions. Purified CSF IgG containing increased anti-MBP levels from 35 patients with acute MS relapses was used to isolate anti-MBP by MBP-Sepharose affinity chromatography (Warren, K. G. and Catz, I., J Neurol Sci 103:90-96, 1991). Purified anti-MBP samples were compared with the initial IgG source by poly-acrylamide gel electrophoresis. When purified anti-MBP samples were absorbed to zero with MBP, the post-absorption supernatants contained no residual IgG indicating the purity of anti-MBP.
Constant amounts of anti-MBP (15 radioactivity binding units corresponding to 100 for scale expansion purposes=% 0) were incubated with increasing amounts of h-MBP (0-1000 ng) or individual peptides of MBP (0-10,000 ng) in a liquid phase assay and after 1.5 hours incubation, free anti-MBP levels were determined in all mixtures. Anti-MBP isolated from 7 individual MS patients or pooled anti-MBP from 10 different MS patients were used in neutralization experiments. […] Another mouse monoclonal antibody to epitope 45-50 was used as negative antibody control.
(§1) Anti-MBP levels were determined by a solid phase radioimmunoassay with human MBP (Warren, K. G. and Catz, I., Ann Neurol 209:20-25, 1986; Warren, K. G. and Catz, I., Ann Neurol 21:183-187, 1987; and Warren, K. G. and Catz, I., J Neurol Sci 91:143-151, 1989). Free anti-MBP levels were measured in all fractions from affinity chromatography and in all neutralization mixtures. All individual samples were run in quadruplicate using the same iodinated material in order to minimize between-assay variability.

[2] = system: mouse monoclonal antibody to epitope 45-50; assay: Negative antibody control of neutralization assay; format: binding
Method: (§2) Constant amounts of anti-MBP (15 radioactivity binding units corresponding to 100 for scale expansion purposes=% 0) were incubated with increasing amounts of h-MBP (0-1000 ng) or individual peptides of MBP (0-10,000 ng) in a liquid phase assay and after 1.5 hours incubation, free anti-MBP levels were determined in all mixtures. Anti-MBP isolated from 7 individual MS patients or pooled anti-MBP from 10 different MS patients were used in neutralization experiments. […] One monoclonal antibody (MAb) to peptide MBP64-78 and a polyclonal rabbit antiserum to peptide MBP1-8 were used as positive antibody controls (Groome, N., Harland, J., and Dawkes, A., Neurochem Int 7:309-317, 1985; Barry, R., Payton, M., and Groome, N., Neurochem Int 2:291-300, 1991). Another mouse monoclonal antibody to epitope 45-50 was used as negative antibody control.
as §1

[3] = system: F and B anti-MBP purified from MS brain tissue; assay: Competitive inhibition assay with MBP decapeptides (epitope localization); format: binding, human; conditions: percent inhibition = 100 - radioactivity units, FIG. 10
Method: (§3) Prior to being assayed all CSF and/or tissue samples were diluted to a final IgG concentration of 0.010 g/l. F anti-MBP was detected directly in CSF or tissue extract while B levels of antibody were determined following acid hydrolysis of immune complexes with glycine HCl buffer pH 2.2. Non-specific binding was performed for each sample in uncoated wells. For epitope localization, synthetic peptides were firstly reacted with purified antibody in a liquid phase competitive assay and then anti-MBP was determined by radioimmunoassay in all resulting supernatants. Results of the combined competitive binding assay and radioimmunoassay were expressed as percent inhibition of synthetic peptide defined as 100—radioactivity units. Samples were done in 10 replicates and counted for 10 minutes each in a LKB1275 Minigamma counter. A pool of tissue-purified anti-MBP was used at 5 pre-established dilutions as positive controls. Pooled CSF from patients with non-neurological diseases was used as negative controls. Within assay reproducibility was between 3 and 5% and between assay variation was less than 7%.
The peptide(s) producing maximum inhibition were considered to be most highly associated with the antibody binding site.

CSF anti-MBP = assay: Intrathecal peptide administration to MS patients, CSF anti-MBP by radioimmunoassay; format: in vivo, human
Method: Anti-MBP levels were determined by a solid phase radioimmunoassay with human MBP coated on Immulon microtiter wells. Immulon microtiter wells were coated with 100 μl of 10 μg/ml of MBP (1 μg/well) and incubated overnight at 37° C. After quenching with bovine serum albumin (BSA) and three water washes, the wells were stored at room temperature. Samples of 100 μl of CSF or tissue extracts diluted to 0.010 gm of IgG/l (with 0.01 M Barbitol Buffered Saline (BBS) pH 6.9-7.1, 0.5% BSA and 0.05% Tween 20) were incubated in MBP-coated wells for 1-2 hours at room temperature. After 5 buffer washes (with 0.01 M BBS, 0.5 BSA and 0.05% Tween 20), wells were incubated with goat […] IgG-Fc specific (in 0.01 M BBS, 0.05% Tween 20, 0.5% BSA) for 1 hour at room temperature and then rinsed as above. Finally, ^125I-protein A (or ^125I-protein G) was added and incubated for 1 hour at room temperature. When ^125I-protein G was used as a tracer, ovalbumin replaced BSA in assay buffer and for quenching. After three final water washes wells were individually counted. Results are expressed in radioactivity defined as: (counts of sample−counts of blank)÷(counts of total radioactivity−counts of blank). All samples are run in 10 replicate and counting time is 10 minutes in order to collect>10,000 counts for any positive sample.
as §3, with “Non-specific binding was performed for each sample in uncoated wells.” left out, “A pool of tissue-purified anti-MBP was used at 5 pre-established dilutions as positive controls. Pooled CSF from patients with non-neurological diseases was used as negative controls. Within assay reproducibility was between 3 and 5% and between assay variation was less than 7%.” left out
A Phase 1 experiment to determine the effect of synthetic peptide MBP75-95 on F and B titers of CSF anti-MBP was conducted. […] After obtaining informed consent, 14 patients volunteered for this study; eight patients were selected on the basis of their initial titre of F CSF anti-MBP (above 8 radioactivity units) (Table 2) to receive one intrathecal injection of either peptide MBP75-95 which bound anti-MBP in vitro or a non-binding control peptide MBP35-58 (Warren and Catz, 1993b). […] Cell counts, total protein, glucose, IgG and albumin levels were determined in all CSF samples obtained. F and B anti-MBP levels were determined by radioimmunoassay, as described above. […]

[4] = system: polyclonal rabbit antiserum to peptide MBP1-8; assay: Positive antibody control of neutralization assay; format: binding
Method: as §2, §1

[5] = Safety monitoring of MS patients after peptide administration; format: in vivo, human
MAb to peptide MBP64-78 = assay: Positive antibody control of neutralization assay; format: binding
Method: as §2, §1

[6] = biological target: purified F (free) anti-MBP from MS brain tissue; assay: liquid-phase competitive inhibition + solid-phase RIA on human MBP (FIG. 10)
[7] = biological target: purified B (bound) anti-MBP from MS brain tissue; assay: as above
[8] = biological target: purified B (bound) anti-MBP from MS brain tissue; assay: competitive inhibition assays using a series of 41 decapeptides
[9] = biological target: purified anti-MBP (antibodies to human myelin basic protein purified from CSF of multiple sclerosis patients; pooled from 10 different patients); assay: liquid-phase neutralization + solid-phase RIA on human MBP; reference intact MBP
[10] = biological target: free (F) anti-MBP in the CSF of MS patients; assay: cell-based or functional assay

Molecule: MBP: Native human myelin basic protein isolated from non-MS brain tissue, 18.5 KD (ASQKRPSQRHGSKYLATASTMDHARHGFLPRHRDTG)
- neutralization of anti-MBP purified from individual patients ([1]; anti-MBP from 7 individual MS patients, FIG. 3): completely neutralized
- neutralization of purified anti-MBP [1]: completely neutralized
- REACTIVITY WITH ANTI-MBP [1]: ++
- reaction with MAb to MBP 45-50 [2]: did not react
- percent inhibition of F and B anti-MBP [3]: 100%

Molecule: MBP35-58: non-binding, control synthetic peptide of human MBP, residues 35-58 (TGILDSIGRFFGGDRGAPKRGSGK)
- REACTIVITY WITH ANTI-MBP [1]: −
- CSF F anti-MBP (CSF anti-MBP; single intrathecal injection 5 mg): remained elevated at baseline level
- CSF F anti-MBP (CSF anti-MBP; single intrathecal injection 10 mg, chronic progressive MS): persistently elevated
- F and B levels of CSF anti-MBP (CSF anti-MBP; single intrathecal injection 1, 2.5, 5 or 10 mg, 24 hour experiment, chronic progressive MS): remained unchanged; also recorded: remained unaffected
- CSF F (free) anti-MBP (CSF anti-MBP; single intrathecal injection, increasing amounts 1-10 mg, chronic progressive MS): did not react

Molecule: MBP1-8: synthetic peptide of human MBP sequence 1-8 with unnatural cysteine residue (ASQKRPSQC)
- inhibition of antibody to peptide MBP1-8 [4]: inhibited
- REACTIVITY WITH ANTI-MBP [1]: −

Molecule: CC[C@H](C)[C@H](NC(=O)[C@H](CC(N)=O)NC(=O)[C@H](CCCCN)NC(=O)[C@H](Cc1ccccc1)NC(=O)[C@H](Cc1ccccc1)NC(=O)[C@H](Cc1c[nH]cn1)NC(=O)[C@@H](NC(=O)[C@@H](NC(=O)[C@@H]1CCCN1C(=O)[C@H](CC(N)=O)NC(=O)[C@H](CCC(=O)O)NC(=O)[C@H](CC(=O)O)NC(=O)[C@H](CCC(N)=O)NC(=O)[C@@H](NC(=O)[C@H](CCCNC(=N)N)NC(=O)CNC(=O)[C@H](Cc1c[nH]cn1)NC(=O)[C@H](CO)NC(=O)[C@@H](N)CCCCN)[C@@H](C)O)C(C)C)C(C)C)C(=O)N[C@H](C(=O)N[C@H](C(=O)O)[C@@H](C)O)C(C)C [MBP75-95] (H-KSHGRTQDENPVVHFFKNIVT-OH; N-terminus and C-terminus assumed)
- adverse effects ([5]; 500 mg intravenously over 30 minutes, patient 8M41): No adverse effects were observed
- systemic complications (electrolytes, cardiac-liver-kidney dysfunction, hematology) ([5]; repeated intrathecal inoculations): no adverse complications have occurred

Molecule: ARTAHYGSLPQKSHG [MBP64-78]
- inhibition of MAb to peptide MBP64-78 (MAb to peptide MBP64-78): inhibited
- neutralization of purified anti-MBP [1]: partially neutralized
- REACTIVITY WITH ANTI-MBP [1]: +

Molecule: CKNIVTPRTPPPSQGKG [peptide MBP91-106 (Cy 91-106)]
- times less effective on a molar basis than intact MBP at causing inhibition [9]: 100 times

Molecule: KSHGRTQDENPVVHFFKNIVT [synthetic peptide MBP75-95 (Example 2 and later)]
- percent inhibition [6]: 100%
- percent inhibition [7]: 100%
- decrease in F anti-MBP level in CSF after one intrathecal injection of 1 mg MBP75-95 (patient 6F53) [10]: 75%

Continued, values first:

- solubility in normal saline (Solubility of peptides): very low solubility
Molecule: CC[C@H](C)[C@H](NC(=O)[C@H](CC(N)=O)NC(=O)[C@H](CCCCN)NC(=O)[C@H](Cc1ccccc1)NC(=O)[C@H](Cc1ccccc1)NC(=O)[C@H](Cc1c[nH]cn1)NC(=O)[C@@H](NC(=O)[C@@H](N)C(C)C)C(C)C)C(=O)N[C@H](C(=O)N[C@H](C(=O)O)[C@@H](C)O)C(C)C [MBP86-95] (H-VVHFFKNIVT-OH; N-terminus and C-terminus assumed)

- percent inhibition [6]: > 80%
- percent inhibition [7]: > 80%
- percent inhibition [8]: > 95%
Molecule: VVHFFKNIVT [decapeptide MBP86-95]

- times less effective on a molar basis than intact MBP at causing inhibition [9]: 100 times
Molecule: CKSHGRTQDENPVVHFFKNIVT [peptide MBP75-95 (Cy 75-95, Example 1)]

- times less effective on a molar basis than intact MBP at causing inhibition [9]: 100 times
Molecule: CTQDENPVVHFFKNIVTPRG [peptide MBP80-97 (Cy 80-97 Gly)]
